Source: patent US20190054067A1, “COMPOSITIONS AND METHODS FOR TREATING COMPULSIVE-LIKE BEHAVIOR IN A SUBJECT” (UNIVERSITY OF THE SCIENCES, priority 2016, published 2019)
pEC50: −log10 of the molar value.

Key:
[1] = test system: compulsive-like BIG male mice; test: open field (OF) test, anxiety-like and locomotor behavior; format: in vivo, Mus musculus
Description: Compulsive-like BIG male mice, Mus musculus, were raised on wood shavings in polypropylene cages (27×17×12 cm) under controlled temperature (22±1° C.) and light (12:12 light-dark cycle) with free access to food (Purina Mills, Lab Diet Mouse Diet #5015, St. Louis, Mo.) and water. Animals were approximately 12-16 weeks of age at the start of each experiment.
Deformylflustrabromine hydrochloride (dFBr; Abcam Biochemicals) was dissolved in physiological saline (pH=6.7) to yield final doses of 2.0 mg/kg (0.27 mg/mL), 4 mg/kg (0.53 mg/mL) and 6 mg/kg (0.80 mg/mL). Saline was used as a vehicle control (0 mg/kg). A mouse of 40 g received an injection volume of 0.3 mL. Injection volumes were proportionally adjusted according to the body weight of individual animals.
Acute Study: Male BIG mice were divided into four treatment groups comprising vehicle (sterile saline), 2 mg/kg, 4 mg/kg and 6 mg/kg. Animals in each group (n=12 per group) were tested for nesting on day 1, MB on day 3 and open field (OF) on day 5. On the first day of testing animals randomly received dFBr or vehicle subcutaneously and in subsequent tests received the same dose. Days 2 and 4 were employed to avoid any residual effects of dFBr from previous administration. […]
Chronic Study; Since the foundation of the animal model was established through effective reversal of compulsive-like NB and MB behaviors by chronic fluoxetine treatment, a chronic regimen was also conducted to establish the sustained and long term effects of dFBr on NB and MB. […] NB, MB and OF behaviors were assessed in the final week (weeks 5) after dFBr administration (NB after 1, 2, 3, 4, 5 and 24 h, and MB after 2 h of drug injection). […]
Anxiety-like behaviors were determined through the open field test. […] The animals were placed in the center of the open field, and their behavior was video taped for 3 min and analyzed with the aid of ANYMAZE™ video tracking software (Stoelting Co., Ill.). The time spent in the center (anxiety-like measure) and total distance travelled (locomotion) in the entire open field were measured. […]
Statistical analysis was performed in Graphpad Prism (GraphPad Software, Inc) and Statistical Analysis System Software (Version 9.4, Cary, N.C.). Nest-building (grams of cotton), marble burying (number of marbles at least ⅔ buried) and open field measures (time in center and total distance travelled) were expressed as the mean±standard error of the mean (SEM). […] Nesting scores at different time points, marble burying and open field results were analyzed by one-way analysis of variance (ANOVA), whereas overall drug and drug by time interaction effect between 0-5 hours was done by two-way analysis of variance (ANOVA). […]

[2] = target: low sensitivity (LS) α4β2 receptors (Homo sapiens, UniProt P17787+P43681); conditions: cited from earlier work
[3] = cited from earlier work
[4] = acute, 0, 2, 4, 6 mg/kg s.c., 2 h after administration
[5] = chronic regimen (day 32), 0, 2, 4, 6 mg/kg

low sensitivity (LS) α4β2 receptors, sequence (P43681 29-627 limits assumed): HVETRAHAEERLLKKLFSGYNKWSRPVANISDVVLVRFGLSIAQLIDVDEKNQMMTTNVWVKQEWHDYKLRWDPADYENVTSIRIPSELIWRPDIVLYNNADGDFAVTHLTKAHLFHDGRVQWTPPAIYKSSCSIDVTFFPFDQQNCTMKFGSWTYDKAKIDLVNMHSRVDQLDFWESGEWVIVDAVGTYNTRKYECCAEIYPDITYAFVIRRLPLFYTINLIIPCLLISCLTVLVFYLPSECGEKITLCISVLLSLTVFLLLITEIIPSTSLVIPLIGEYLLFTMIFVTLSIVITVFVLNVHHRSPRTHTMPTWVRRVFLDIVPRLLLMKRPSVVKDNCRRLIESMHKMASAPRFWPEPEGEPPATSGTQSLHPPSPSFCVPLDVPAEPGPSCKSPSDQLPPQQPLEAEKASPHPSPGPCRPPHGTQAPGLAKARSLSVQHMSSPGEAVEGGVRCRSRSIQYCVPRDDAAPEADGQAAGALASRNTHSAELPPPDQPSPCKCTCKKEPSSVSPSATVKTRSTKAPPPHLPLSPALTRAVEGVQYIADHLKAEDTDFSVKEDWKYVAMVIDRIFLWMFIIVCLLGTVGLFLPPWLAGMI
low sensitivity (LS) α4β2 receptors, sequence (P17787 26-502): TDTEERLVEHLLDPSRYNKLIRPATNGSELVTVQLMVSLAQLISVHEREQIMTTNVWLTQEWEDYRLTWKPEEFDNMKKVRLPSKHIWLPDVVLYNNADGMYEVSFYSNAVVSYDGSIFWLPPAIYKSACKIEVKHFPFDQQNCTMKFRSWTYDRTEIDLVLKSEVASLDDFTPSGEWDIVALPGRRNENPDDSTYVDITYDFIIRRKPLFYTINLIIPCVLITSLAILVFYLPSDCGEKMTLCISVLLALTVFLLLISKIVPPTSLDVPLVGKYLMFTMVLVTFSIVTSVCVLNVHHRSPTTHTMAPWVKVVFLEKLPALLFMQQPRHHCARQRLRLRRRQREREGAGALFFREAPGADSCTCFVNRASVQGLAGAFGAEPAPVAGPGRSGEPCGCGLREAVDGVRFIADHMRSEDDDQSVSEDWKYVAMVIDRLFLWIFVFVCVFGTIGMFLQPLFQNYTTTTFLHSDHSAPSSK

C=CC(C)(C)c1[nH]c2cc(Br)ccc2c1CCNC [dFBr, 2-[6-bromo-2-(2-methylbut-3-en-2-yl)-1H-indol-3-yl]-N-methylethanamine]
time spent in center of the OF (anxiety-like) [1, 4]: No significant differences
total distance traveled (locomotor activity) [1, 4]: not different among the treatment groups
time in center [1, 5]: did not differ among treatment groups
total distance [1, 5]: did not differ among treatment groups
potentiation of acetylcholine-induced whole cell responses [2]: 260%
pEC50 ([2]; read-out: EC50 of potentiation): 5.60
amount reaching the cerebrospinal fluid ([3]; after 90 min of subcutaneous administration): around 36%
time of peak levels in the cerebrospinal fluid ([3]; rats, after administration): 90 min
